Measurements published in PMC6403188, “Species-Specific Structural Requirements of Alpha-Branched Trehalose Diester Mincle Agonists” (Frontiers in Immunology, 2019).

Experiments:
THP-1 cells = experiment: TNFα production from THP-1 cells (ELISA); type: cell-based, human; conditions: plate-coated compound, 24 h
Procedure: Supernatants were harvested from treated cells following 18–24 h of incubation. Supernatants were analyzed using a DuoSet TNFα ELISA (R&D Systems, Minneapolis, MN) or Luminex multiplex panel for analytes TNFα, IL-1β, IL-6, IFNγ, IL-12p70, and IL-23 (R&D Systems) per the manufacturer's instructions. Multiplex analysis was performed using a Luminex 200 instrument (Luminex Corporation) and analyzed with StarStation2.3 software. ELISAs were read on a plate reader at 450 nm and cytokine concentration was calculated by fitting the standard curve OD values to a 4-parameter logistical model using curve fitting software (XLfit, IDBS, Alameda, CA).
Next, investigation into activity of the alpha-branched TDE compounds was extended to include both human and murine monocytic cell lines, THP-1 and RAW264.7, respectively. These cell lines have previously been reported as responsive to the Mincle receptor agonists TDM and TDB ([30], [31]).
Figure 3 TNFα production from human THP-1 cells in response to stimulation with synthetic αTDE compounds. The indicated compounds were dissolved in 50% isopropanol/isooctane, serially diluted in vehicle and then dried to the bottom of a tissue culture plate. THP-1 cells were applied to the compound-coated plates and incubated at 37°C; supernatant was harvested 24 h later and analyzed for TNFα via ELISA (A-E). Results from the 200 μg/ml concentration vs. each compounds acyl chain length are shown in (F). Data points are average of at least two independent experiments ± SD.

BALB/c mice = experiment: Splenocyte restimulation with M72 and intracellular cytokine staining of CD4/CD8 T cells after vaccination; type: in vivo, mouse; conditions: 0.125 μg antigen plus 2, 10, or 50 nmol liposomal adjuvant, i.m. two times, spleens 5 days post-secondary
Procedure: Animal studies were carried out in an OLAW and AAALAC accredited vivarium in accordance with University of Montana's IACUC guidelines for the care and use of laboratory animals. Groups of 10–14 BALB/c mice were vaccinated intramuscularly with 0.125 μg M72 antigen and indicated concentrations of various CLR adjuvant candidates (liposomal formulations) in 50 μl total volume per injection. After 14 days, blood and serum samples were collected and a secondary vaccination was administered. At day 19 (5 days post-secondary vaccination), 3–6 mice per group were euthanized and spleens were harvested the assessment of cell-mediated immunity. At day 28 (14 days post booster vaccination) the remaining 7 mice in each group were euthanized and blood was collected for the measurement of M72 specific humoral immunity.
Spleens were harvested from vaccinated mice 5 days after secondary injections and splenocytes were harvested by disruption of the spleens through a 100 μm filter. Red blood cells were lysed by incubation with red blood cell lysis buffer (Sigma) for 5 min followed by washing in 1x PBS. Cells were plated in a 96 well plate at 5 × 10^6 cells/well in 200 μL complete RPMI1640 media. Cells were incubated with 1 μg/mL M72 antigen for […] at 37°C. After 7 h, GolgiPlug (Brefeldin A, BD Biosciences) was added to each well and incubated at 37°C for a further 12 h. Following incubation, cells were stained with the cell surface antibodies against CD3e PerCP-Cy5.5 (Tonbo Biosciences, 145-2C11), CD4a APC-Cy7 (Tonbo Biosciences, RM4-5) and CD8a PE-Cy7 (Tonbo Biosciences, 53–6.7) and viability stain (Ghost 510, Tonbo Biosciences). Cells were treated with cytofix/cytoperm (BD) and stained with anti-IFNγ PE-CF594 (BD, XMG1.2), anti-IL2 FITC (Biolegend, JES6-5H4), anti-IL-5 PE (BD, TRFK5), anti-IL17A BV421 (Biolegend, TC11-18H10.1), and anti-TNFα APC (Invitrogen, MP6-XT22). Data was collected using an LSRII flow cytometer (BD) and analyzed using FlowJo 10.0 software (TreeStar). Splenocytes were gated on live, single cells, then CD3+ to identify all T cells, then gated as CD4+CD8- to identify CD4 T cells or CD4-CD8+ to identify CD8 T cells. Gates for intracellular cytokine positive CD4 or CD8 T cells are set based on re-stimulation of naïve splenocytes. Gating strategies for the detection of antigen specific CD4+ and CD8+ T cells are outlined in Supplemental Figure 3.
Figure 7 Induction of IL-17 producing CD4+ and CD8+ T cells from an αTDE adjuvanted M72 vaccine. BALB/c mice, 10 per group, were immunized two times i.m. with 0.125 μg antigen plus 2, 10, or 50 nmol of the indicated adjuvant. Spleens were harvested from a subset of 3 mice per group at 5 days post-secondary vaccination. Splenocytes were restimulated with 1 μg/mL whole antigen and transport inhibitors followed by surface staining for CD3, CD4, and CD8 and then intracellular cytokine staining. Data represent percentage of live, CD3^+/CD4^+, left, or CD3^+/CD8^+, right, cells that are also positive for IL-17A upon stimulation.
Figure 8 B16 liposomes biases a Th17/Th2 adaptive immune response. BALB/c mice, 14 per group, were immunized twice, 14 days apart, i.m with 0.1, 1, or 10 μg of M72 antigen plus either blank DDA:DSPC liposome or B16 loaded (10 nmol final dose) liposome. (A,B) M72-specific serum antibody titers at 14 days post-secondary vaccination. (C–F) Spleens were harvested from mice at 5 days post-secondary vaccination and restimulated with 1 μg/mL whole antigen and transport inhibitors followed by surface staining for CD3, CD4, and CD8 and then intracellular cytokine staining. (C) Percent of live, CD3^+/CD4^+/IL5+ cells, (D) Percent of live, CD3^+/CD8^+/IFNγ+ cells, (E) Percent of live, CD3^+/CD4^+/IL17+ cells, and (F) Percent of live, CD3^+/CD8^+/IL17+ cells. ^*p < 0.05, ^**p < 0.01, ^****p < 0.001.
Supplemental Figure 10. Production of IFNɣ, IL-2, IL-5 or TNFα by CD4 or CD8 T cells in response to various CLR compounds. […]

## CCCCCCCCCCCCCCCCCCCCCC(=O)OC[C@H]1O[C@H](O[C@H]2O[C@H](COC(=O)CCCCCCCCCCCCCCCCCCCCC)[C@@H](O)[C@H](O)[C@H]2O)[C@H](O)[C@@H](O)[C@@H]1O [TDB, trehalose dibehenate, reference compound]
THP-1 cells
  TNFα induction from THP-1 cells (in words): activity at the highest concentrations tested
BALB/c mice
  IL-17+ CD4+ and CD8+ T cells (Th17 response) after M72 re-stimulation: able to boost Th17
